These results are taken from patent publication US20080076927A1, “Synthetic Methods and Intermediates for Stereoisomeric Compounds Useful for the Treatment of Gastrointestinal and Central Nervous System Disorders” (ARYx Therapeutics, Inc., priority 2005, published 2008).

In one data set the target is 2D6 (Homo sapiens, UniProt P10635). Particulars: human.
For data set [1], the system named is isolated, perfused guinea pig hearts.
The next data set concerns the target CYP3A4 (Homo sapiens, UniProt P08684). Particulars: recombinant enzyme.
Data set [2] has as its target T1, 5-HT4 Receptor (Cavia porcellus, UniProt O70528). Nature of the data set: 5-HT4 Receptor Binding, Guinea Pig Striatum, [3H]GR113808. Also on record: Guinea Pig Striatum; from tissue; host or cells: guinea pig striatum. Particulars: Guinea Pig Striatum, [3H]GR113808 (0.70 nM).
The next data set addresses 2C9 (Homo sapiens, UniProt P11712).
Data set [3] is classed as in vitro ADME, human. On the procedure: ATI-7505 (2 μM) was incubated with human microsomal protein (1 mg) in the presence or absence of NADPH regenerating system (cofactor).
Thus the major biotransformation pathway for ATI-7505 occurs independently of CYP450 enzymes.
The metabolism of these compounds was studied in pooled human microsomes in the presence and absence of the Cytochrome P-450 cofactor NADPH and both the disappearance of parent and the appearance of the corresponding acid metabolite, i.e., the corresponding compound-II isomer, monitored with time.
In this experiment, the amount of substrate (compounds III, IV, V, and VI) remaining in the reaction after 5, 60, and 90 minutes were evaluated by a tandem HPLC-MS method. This remaining amount was correlated with the appearance of the metabolite compound II.

Data set [4] is described as follows: Metabolism in Fresh Human Blood. The data set is classed as in vitro ADME. The following applies: blood; for half-life at 100 µM: Half-life (min); for Half-life: 100 µM. As to the method:
Fresh blood was collected into heparinized tubes from 3 human donors and blood was stored on ice until incubation. Separate aliquots of blood from each donor were pipetted into 1.5 mL centrifuge tubes and the tubes were pre-incubated in a shaking water bath at 37° C. for 5 minutes. The reaction was initiated by the addition of 10 μL of the appropriate test compound stock to each tube (final concentration=100 μM). Incubations were quenched after 0, 5, 15, 30 and 60 minutes, by the addition of acetonitrile ([…]), centrifuged at 12,000 rpm for 2 minutes and the supernatant analyzed on an Agilent 1100 HPLC system. Separations were accomplished on a Keystone Intersil ODS2, 250×4.6 mm, […] column. The aqueous mobile phase consisted of 20 mM ammonium acetate buffer (pH 5.7) and the organic phase acetonitrile. A gradient was used: initial condition consisted of 20% acetonitrile for 1 minute. […] The system was then recycled to initial conditions over the course of 1 minute and held there for 4 minutes before the next injection. […] The results were expressed as amount of initial compound remaining and data subjected to kinetic analysis using WinNonLin. The half-lives for the individual compounds are given below in Table 6.

Data set [5] concerns esterases in human plasma.
The target of data set [6] is T1, 5-HT4 Receptor. In words: 5-HT4 receptor binding of the isomers of compound I, radiolabel displacement method. The following applies: read-out: binding constant Ki.

T1 sequence (O70528 whole entry): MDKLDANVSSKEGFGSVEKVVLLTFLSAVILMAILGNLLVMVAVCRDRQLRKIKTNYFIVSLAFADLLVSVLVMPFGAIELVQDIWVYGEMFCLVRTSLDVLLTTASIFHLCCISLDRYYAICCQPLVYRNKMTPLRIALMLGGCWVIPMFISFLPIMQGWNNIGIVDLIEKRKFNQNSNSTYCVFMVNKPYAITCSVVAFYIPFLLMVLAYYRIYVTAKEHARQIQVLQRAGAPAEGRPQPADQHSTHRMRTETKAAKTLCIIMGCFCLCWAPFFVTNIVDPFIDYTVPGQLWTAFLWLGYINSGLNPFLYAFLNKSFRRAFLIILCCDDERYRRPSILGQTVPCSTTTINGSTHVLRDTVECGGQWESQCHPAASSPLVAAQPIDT
Chain of CYP3A4 (P08684 whole entry): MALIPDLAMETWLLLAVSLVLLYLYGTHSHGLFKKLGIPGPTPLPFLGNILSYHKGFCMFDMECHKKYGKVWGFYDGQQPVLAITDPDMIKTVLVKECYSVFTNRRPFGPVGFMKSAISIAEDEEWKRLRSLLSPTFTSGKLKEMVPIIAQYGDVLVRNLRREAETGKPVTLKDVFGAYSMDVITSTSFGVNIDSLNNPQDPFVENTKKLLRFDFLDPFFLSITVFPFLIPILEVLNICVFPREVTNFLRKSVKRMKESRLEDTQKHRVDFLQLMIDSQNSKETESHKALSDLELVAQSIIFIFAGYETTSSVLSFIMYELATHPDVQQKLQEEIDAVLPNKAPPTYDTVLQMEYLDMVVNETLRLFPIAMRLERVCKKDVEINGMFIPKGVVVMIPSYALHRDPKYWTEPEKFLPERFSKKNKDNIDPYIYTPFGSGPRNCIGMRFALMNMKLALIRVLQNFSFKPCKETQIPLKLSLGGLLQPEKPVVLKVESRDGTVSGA
Chain of 2C9 (P11712 whole entry): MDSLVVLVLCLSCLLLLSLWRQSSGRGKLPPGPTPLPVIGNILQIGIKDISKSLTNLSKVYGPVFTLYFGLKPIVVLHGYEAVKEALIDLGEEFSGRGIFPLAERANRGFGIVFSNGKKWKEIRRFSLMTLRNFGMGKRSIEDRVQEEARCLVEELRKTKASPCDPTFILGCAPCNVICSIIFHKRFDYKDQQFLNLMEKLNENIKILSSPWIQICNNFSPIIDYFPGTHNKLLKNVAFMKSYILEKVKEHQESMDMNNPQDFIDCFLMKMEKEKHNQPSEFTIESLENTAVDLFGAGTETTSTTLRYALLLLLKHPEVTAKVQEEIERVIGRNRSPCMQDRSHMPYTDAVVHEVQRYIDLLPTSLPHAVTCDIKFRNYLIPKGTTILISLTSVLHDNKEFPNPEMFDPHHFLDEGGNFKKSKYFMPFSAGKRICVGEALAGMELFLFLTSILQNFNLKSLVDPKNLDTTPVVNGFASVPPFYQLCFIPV
Chain of 2D6 (P10635 whole entry, the tested form may be a part): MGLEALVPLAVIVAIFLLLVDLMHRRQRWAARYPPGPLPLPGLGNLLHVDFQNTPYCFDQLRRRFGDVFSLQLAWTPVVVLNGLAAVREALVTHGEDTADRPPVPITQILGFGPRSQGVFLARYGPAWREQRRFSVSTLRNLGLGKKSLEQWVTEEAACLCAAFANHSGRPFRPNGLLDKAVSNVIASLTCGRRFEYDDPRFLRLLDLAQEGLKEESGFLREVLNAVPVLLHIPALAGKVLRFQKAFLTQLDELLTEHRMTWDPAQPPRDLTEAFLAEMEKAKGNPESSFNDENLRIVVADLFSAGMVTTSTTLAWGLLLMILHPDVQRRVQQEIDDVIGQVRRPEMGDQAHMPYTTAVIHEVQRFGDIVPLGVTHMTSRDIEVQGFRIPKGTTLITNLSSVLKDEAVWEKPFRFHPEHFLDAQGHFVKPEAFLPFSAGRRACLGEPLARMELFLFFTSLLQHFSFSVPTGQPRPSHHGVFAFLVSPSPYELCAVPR

With `COc1cc(N)c(Cl)cc1C(=O)N[C@@H]1CCN(CCCCCC(=O)O)C[C@@H]1OC` [ATI-7500, 6-((3S,4R)-4-(4-amino-5-chloro-2-methoxybenzamido)-3-methoxypiperidin-1-yl)hexanoic acid], the “inhibitory activity against 2D6” value against 2D6 is “Neither ATI-7505 nor its primary metabolite, ATI-7500 displayed significant inhibitory activity”. For the same compound, in [1], the “modulation of cardiac electrophysiologic parameters” value is listed as “entirely lacked electrophysiological activity”. The “inhibitory activity against CYP3A4” value at CYP3A4 is “Neither ATI-7505 nor its primary metabolite, ATI-7500 displayed significant inhibitory activity”. The IC50 on 5-HT4 Receptor [2] (read-out: IC50) is over 3000 nM. For the same compound, the Ki at 5-HT4 Receptor [2] (read-out: Ki) is over 500 nM. In addition, the “inhibitory activity against 2C9” value against 2C9 is recorded as “Neither ATI-7505 nor its primary metabolite, ATI-7500 displayed significant inhibitory activity”. Besides, the “biotransformation in pooled human microsomes” value in [3] is “does not appear to be subject to further metabolism”.

Take `COc1cc(N)c(Cl)cc1C(=O)N[C@H]1CCN(CCCCCC(=O)O[C@H]2CN3CCC2CC3)C[C@H]1OC` [Compound III, (3R,4S,3′R)-6-[4-(4-Amino-5-chloro-2-methoxy-benzoylamino)-3-methoxy-piperidin-1-yl]-hexanoic acid 1-aza-bicyclo[2.2.2]oct-3-yl ester]: the half-life at 100 µM in data set [4] came out at 0.2 h. For the same compound, in data set [5], the “rate of metabolism by esterases in human plasma” value (shortened to “rate of metabolism by esterases”) is “rapidly metabolized by esterases in human plasma”. Further, the inhibition constant Ki at 5-HT4 Receptor [6] was determined as 28 nM. In addition, the “hydrolysis by esterase in human microsomes” value (“hydrolysis by esterase” for short) in data set [3] was “rapidly hydrolyzed by esterase”. Besides, the “dependence of metabolism on NADPH / CYP450” value in data set [3] (human, microsomes) was “not dependent on CYP450”.

As to `COc1cc(N)c(Cl)cc1C(=O)N[C@@H]1CCN(CCCCCC(=O)O[C@@H]2CN3CCC2CC3)C[C@@H]1OC` [Compound VI, (3S,4R,3′S)-6-[4-(4-Amino-5-chloro-2-methoxy-benzoylamino)-3-methoxy-piperidin-1-yl]-hexanoic acid 1-aza-bicyclo[2.2.2]oct-3-yl ester], in data set [4], the “Half-life” value was over 1 h and the half-life at 100 µM was over 1 h. Further, the “rate of metabolism by esterases” value in data set [5] was “undergo a much slower metabolism”. The Ki at 5-HT4 Receptor [6] was determined as 3.4 nM. Further, the “hydrolysis by esterase” value in [3] was “quite stable with time”.

For the compound `COc1cc(N)c(Cl)cc1C(=O)N[C@H]1CCN(CCCCCC(=O)O[C@@H]2CN3CCC2CC3)C[C@H]1OC` [Compound V], in data set [4], the “Half-life” value was over 1 h and the half-life at 100 µM was over 1 h. Also, the “rate of metabolism by esterases” value in data set [5] is on record as “undergo a much slower metabolism”. The inhibitory constant (Ki) at 5-HT4 Receptor [6] turned out to be 72 nM. In addition, in data set [3], the “hydrolysis by esterase” value was “quite stable with time”.
